Source: patent publication US9968646B2, “Method for treatment of prostatic hyperplasia and/or ameliorating urinary disturbance with banana flower extract” (TCI Co., Ltd., priority 2014, dated 2018)

Tests used:
[1] = tested on: LNCap human prostate cancer cell lines; test: MTT survival rate of LNCap cells stimulated by testosterone; format: cell-based
Procedure: In one embodiment, LNCap human prostate cancer cell lines (BCRC 60088) purchased from Bioresource Collection and Research Center (BCRC) are used. 2×10^4 LNCap cells/well are placed in the 96-well plate and cultured for 24 hr. LNCap cells treated with testosterone and various concentrations (0.5 mg/mL and 2.0 mg/mL) of the banana flower extract, and co-cultured for 3 days. LNCap cells are treated with the banana flower extract without testosterone as negative control, and LNCap cells are treated with testosterone without the banana flower extract as vehicle control. The survival rate of LNCap cells is evaluated using the MTT assay, LNCap cells are treated with 1 mg/mL MTT (3-[4,5-dimethyl thiazol-2-yl]-2,5diphenyl tetrazolium bromide) for 2 hr, and dimethyl sulfoxide (DMSO) is added to dissolve blue formazan crystals. An absorbance is measured using a reader at the wavelength of 570 nm.

[2] = tested on: dihydrotestosterone synthesis in LNCap cells; test: Dihydrotestosterone level (ELISA) in LNCap cells stimulated by testosterone; format: cell-based, human; details: co-treatment of testosterone and 0.2 mg/mL finasteride; testosterone alone = 100%
Procedure: 1×10^5 LNCap cells/well are cultured with RPMI 1640 containing 10% FBS and 1% sodium pyruvate in 9-cm culture plate for 36 hr. […] And all LNCap cells are stimulated by 10 μg/mL testosterone.
Cell lysis is processed prior to analysis of dihydrotestosterone level: LNCap cells are dispersed with typsin and centrifuged to collect the suspension cells, the suspension cells are washed with cold PBS, and the suspension cells are resuspended in PBS(1×) and sonicated 4 times; or LNCap cells are frozen at −20° C. or lower, and stirred frequently until thawed for 3 times to destroy cells. The destroyed cells are centrifuged at 150× g at 2-8° C. for 10 min to remove the cell debris. Finally, dihydrotestosterone ELISA Kit (Uscn Life science Inc.) is used to detect dihydrotestosterone level.
LNCap cells are treated with the banana flower extract of the present invention and testosterone as above-mentioned method, LNCap cells treated with the banana flower extract without testosterone as negative control, and LNCap cells treated with testosterone without the banana flower extract as vehicle control, are detected dihydrotestosterone level. […] As co-treating with testosterone and the banana flower extract (2 mg/mL), the dihydrotestosterone synthesis rate of LNcap cells is decreased about 30%. […]

SMILES: CC(C)(C)NC(=O)[C@H]1CC[C@H]2[C@@H]3CC[C@H]4NC(=O)C=C[C@]4(C)[C@H]3CC[C@]12C [finasteride]
- LNcap cell proliferation stimulated by testosterone ([1]; co-treatment of testosterone and 0.2 mg/mL finasteride): slightly inhibit
- reduction of dihydrotestosterone synthesis rate [2]: 10%

SMILES: C[C@]12CC[C@H]3[C@@H](CCC4=CC(=O)CC[C@@]43C)[C@@H]1CC[C@@H]2O [testosterone]
- survival rate of LNcap cells ([1]; testosterone alone, without testosterone = 100%): about 110%
